What all share (format): in vivo
In assay [1] the test system is SETFA (Setaria faberi). Put plainly: greenhouse pre-emergence herbicidal test. The text has this:
(§1) The culture containers used were plastic flowerpots containing loamy sand with approximately 3.0% of humus as the substrate. The seeds of the test plants were sown separately for each species.
(§2) For the pre-emergence treatment, the active ingredients, which had been suspended or emulsified in water, were applied directly after sowing by means of finely distributing nozzles. The containers were irrigated gently to promote germination and growth and subsequently covered with transparent plastic hoods until the plants had rooted. This cover caused uniform germination of the test plants, unless this had been impaired by the active ingredients.
(§3) Depending on the species, the plants were kept at 10-25° C. or 20-35° C., respectively.
(§4) The test period extended over 2 to 4 weeks. During this time, the plants were tended, and their response to the individual treatments was evaluated.
(§5) Evaluation was carried out using a scale from 0 to 100. 100 means no emergence of the plants, or complete destruction of at least the aerial moieties, and 0 means no damage, or normal course of growth. A moderate herbicidal activity is given at values of at least 60, a good herbicidal activity is given at values of at least 70, and a very good herbicidal activity is given at values of at least 85.
(§6) The plants used in the greenhouse experiments were of the following species: […]

In assay [2] the test system is AMARE (Amaranthus retroflexus). Briefly: greenhouse pre-emergence herbicidal test. From the text:
(§7) The seeds of the test plants were sown separately for each species. For the pre-emergence treatment, the active ingredients, which had been suspended or emulsified in water, were applied directly after sowing by means of finely distributing nozzles. The containers were irrigated gently to promote germination and growth and subsequently covered with transparent plastic hoods until the plants had rooted. This cover caused uniform germination of the test plants, unless this had been impaired by the active ingredients. Depending on the species, the plants were kept at 10-25° C. or 20-35° C., respectively. The test period extended over 2 to 4 weeks. During this time, the plants were tended, and their response to the individual treatments was evaluated. […] A moderate herbicidal activity is given at values of at least 60, a good herbicidal activity is given at values of at least 70, and a very good herbicidal activity is given at values of at least 85. The plants used in the greenhouse experiments were of the following species: [table]

In assay [3] the test system is STEME (Stellaria media). Briefly: greenhouse pre-emergence herbicidal test.
Description: as §1, §2, §3, §4, §5, §6

Assay [4] has as its system ABUTH (Abutilon theophrasti). Briefly: greenhouse pre-emergence herbicidal test.
Description: as §7

Assay [5] concerns CAPBP (Capsella bursa-pastoris). Briefly: greenhouse pre-emergence herbicidal test. To be noted: CAPBP.
Description: as §1, §2, §3, §4, §5, §6

Assay [6] concerns ECHCG (Echinocloa crus-galli). Briefly: greenhouse pre-emergence herbicidal test.
Description: as §1, §2, §3, §4, §5, §6

For assay [7], the system named is ABUTH (Abutilon theophrasti). Briefly: greenhouse post-emergence herbicidal test.
Description: as §1
For the post-emergence treatment, the test plants were first grown to a height of 3 to 15 cm, depending on the plant habit, and only then treated with the active ingredients which had been suspended or emulsified in water. For this purpose, the test plants were either sown directly and grown in the same containers, or they were first grown separately as seedlings and transplanted into the test containers a few days prior to treatment.
as §3, §4, §5, §6

For `C=C(C)c1nc(N)nc(Nc2c(F)c(F)c(F)c(F)c2F)n1` [Example 53], the herbicidal activity entry in assay [1] (0.125 kg/ha) is on record as “good (a good herbicidal activity is given at values of at least 70)”; in assay [2] (0.125 kg/ha) it was “very good (a very good herbicidal activity is given at values of at least 85)”.
Turning to `CC(C)(C#N)c1nc(N)nc(Nc2c(F)c(F)c(F)c(F)c2F)n1` [Example 64], the herbicidal activity result in assay [3] (125 g/ha), in assay [4] (125 g/ha) and in assay [2] (125 g/ha) was “very good (a very good herbicidal activity is given at values of at least 85)” throughout.
Regarding `Nc1nc(Nc2c(F)c(F)c(F)c(F)c2F)nc(C(F)(F)C(F)(F)F)n1` [Example 68], the herbicidal activity entry in assay [3] (125 g/ha), in assay [5] (125 g/ha) and in assay [2] (125 g/ha) was “very good (a very good herbicidal activity is given at values of at least 85)” throughout.
For the compound `CC(C)(C)c1nc(N)nc(Nc2c(F)ccc(F)c2F)n1` [Example 80], the herbicidal activity result in assay [3] (125 g/ha), in assay [6] (125 g/ha) and in assay [5] (125 g/ha) was “very good (a very good herbicidal activity is given at values of at least 85)” in each case.
As for `CCC(CC)c1nc(N)nc(Nc2c(F)c(F)c(F)c(F)c2F)n1` [Example 83], the herbicidal activity entry in assay [3] (250 g/ha), in assay [6] (250 g/ha) and in assay [5] (250 g/ha) was “very good (a very good herbicidal activity is given at values of at least 85)” throughout.
Regarding `Nc1nc(CC2CC2)nc(Nc2c(F)cc(F)cc2F)n1` [Example 141], the herbicidal activity result in assay [1] (1000 g/ha) is given as “very good (a very good herbicidal activity is given at values of at least 85)”; in assay [6] (1000 g/ha) it was “good (a good herbicidal activity is given at values of at least 70)”; in assay [2] (1000 g/ha), “very good (a very good herbicidal activity is given at values of at least 85)”.
For the compound `Nc1nc(Nc2c(F)cc(F)cc2F)nc(C2CCC2)n1` [Example 142], the values for the herbicidal activity entry in assay [1] (500 g/ha), in assay [4] (500 g/ha) and in assay [2] (500 g/ha) were “good (a good herbicidal activity is given at values of at least 70)”, “good (a good herbicidal activity is given at values of at least 70)” and “very good (a very good herbicidal activity is given at values of at least 85)”, respectively.
`CC(Cl)(Cl)c1nc(N)nc(Nc2c(F)c(F)c(F)c(F)c2F)n1` [Example 147]: the herbicidal activity entry in assay [1] (250 g/ha), in assay [6] (250 g/ha) and in assay [2] (250 g/ha) was “very good (a very good herbicidal activity is given at values of at least 85)” each time.
Turning to `Nc1nc(Nc2c(F)c(F)cc(F)c2F)nc(C(F)F)n1` [Example 150], the herbicidal activity result in assay [1] (500 g/ha), in assay [4] (500 g/ha) and in assay [2] (500 g/ha) was “very good (a very good herbicidal activity is given at values of at least 85)” each time.
As for `N#Cc1cccc(F)c1Nc1nc(N)nc(C(F)(F)F)n1` [Example 151], the herbicidal activity result in assay [7] (500 g/ha) is listed as “good (a good herbicidal activity is given at values of at least 70)”.
Consider `COc1ccc(F)c(F)c1Nc1nc(N)nc(C(F)(F)F)n1` [Example 158], for which the herbicidal activity result in assay [7] (1000 g/ha) is on record as “very good (a very good herbicidal activity is given at values of at least 85)”.
Take `Nc1nc(Nc2c(F)c(F)c(F)c(F)c2F)nc(C2CCC(C(F)(F)F)CC2)n1` (centres unmarked) [Example 165]: the herbicidal activity result in assay [1] (1000 g/ha), in assay [6] (1000 g/ha) and in assay [2] (1000 g/ha) was “very good (a very good herbicidal activity is given at values of at least 85)” in each case.
On to `COC1CCC(c2nc(N)nc(Nc3c(F)c(F)c(F)c(F)c3F)n2)CC1` (centres unmarked) [Example 167], for which the figures for the herbicidal activity result in assay [1] (500 g/ha), in assay [4] (500 g/ha) and in assay [2] (500 g/ha) were “very good (a very good herbicidal activity is given at values of at least 85)”, “good (a good herbicidal activity is given at values of at least 70)” and “very good (a very good herbicidal activity is given at values of at least 85)”, respectively.
For the compound `CC(C)(C)C1CCC(c2nc(N)nc(Nc3c(F)c(F)c(F)c(F)c3F)n2)CC1` (centres unmarked) [Example 177], the herbicidal activity entry is on record as “good (a good herbicidal activity is given at values of at least 70)” in assay [1] (500 g/ha) and “very good (a very good herbicidal activity is given at values of at least 85)” in assay [2] (500 g/ha).
Regarding `CC=C(C)c1nc(N)nc(Nc2c(F)c(F)c(Br)c(F)c2F)n1` [Example 194], the herbicidal activity entry in assay [1] (500 g/ha) is “good (a good herbicidal activity is given at values of at least 70)”.
For the compound `CCCCC(C#N)c1nc(N)nc(Nc2c(F)ccc(F)c2F)n1` (centres unmarked) [Example 197], the herbicidal activity entry in assay [1] (1000 g/ha) is recorded as “good (a good herbicidal activity is given at values of at least 70)”.
For `CCC(C)(Cl)c1nc(N)nc(Nc2c(F)c(F)cc(F)c2F)n1` (centres unmarked) [Example 205], the herbicidal activity entry in assay [1] (125 g/ha), in assay [6] (125 g/ha) and in assay [2] (125 g/ha) was “very good (a very good herbicidal activity is given at values of at least 85)” each time.
On to `Nc1nc(Nc2c(F)ccc(F)c2F)nc(C2CCCC2)n1` [Example 212], for which the herbicidal activity result in assay [1] (500 g/ha), in assay [6] (500 g/ha) and in assay [2] (500 g/ha) was “very good (a very good herbicidal activity is given at values of at least 85)” throughout.
As to `N#CC1(c2nc(N)nc(Nc3c(F)c(F)cc(F)c3F)n2)CC1` [Example 216], the values for the herbicidal activity entry in assay [1] (250 g/ha), in assay [4] (250 g/ha) and in assay [2] (250 g/ha) were “good (a good herbicidal activity is given at values of at least 70)”, “good (a good herbicidal activity is given at values of at least 70)” and “very good (a very good herbicidal activity is given at values of at least 85)”, respectively.
`CC(C)(F)c1nc(N)nc(Nc2c(F)cc([N+](=O)[O-])cc2F)n1` [Example 220]: the herbicidal activity result in assay [1] (500 g/ha) is given as “good (a good herbicidal activity is given at values of at least 70)”.
As to `CC(C)(C)C(=O)N(c1nc(N)nc(C(C)(C)C)n1)c1c(F)c(F)cc(F)c1F` [Example 286], the herbicidal activity entry in assay [1] (125 g/ha), in assay [4] (125 g/ha) and in assay [2] (125 g/ha) was “very good (a very good herbicidal activity is given at values of at least 85)” in each case.
Take `Nc1nc(C2CCCC2)nc(N(C(=O)C2CCCC2)c2c(F)c(F)cc(F)c2F)n1` [Example 304]: the herbicidal activity result in assay [1] (1000 g/ha), in assay [6] (1000 g/ha) and in assay [2] (1000 g/ha) was “very good (a very good herbicidal activity is given at values of at least 85)” throughout.
With `CN(c1nc(N)nc(C(C)(C)F)n1)c1c(F)c(F)c(F)c(F)c1F` [Example 307], the herbicidal activity result in assay [1] (125 g/ha) and in assay [2] (125 g/ha) was “very good (a very good herbicidal activity is given at values of at least 85)” throughout.

The values above are taken from patent publication US9549558B2, “Herbicidal azines” (BASF SE, priority 2012, dated 2017).
